{
  "source": "paper PMC4393269",
  "about": "“Carvacrol Codrugs: A New Approach in the Antimicrobial Plan” (PLoS ONE, 2015)",
  "key": {"[1]": {"system": "P. aeruginosa ATCC 9027", "test": "Broth microdilution MIC/MBC on planktonic cells", "format": "cell-based", "settings": "Pseudomonas aeruginosa, ATCC9027", "experimental": "(§1) Two Gram-positive (S. aureus ATCC 29213 and S. epidermidis ATCC 35984) and two Gram-negative (E. coli ATCC 8739 and P. aeruginosa ATCC 9027) strains, and one fungal strain (C. albicans ATCC 10231) were used for the detection of antibacterial activity of carvacrol, NAC, Ac-Cys(Allyl)-OH, and carvacrol codrugs 1–10. All tested compounds were dissolved in 20% DMSO to prepare the stock solution (100 mg/mL). The final concentration of DMSO in each well appeared to be not toxic for all studied microorganisms, as confirmed by the solvent control test included in the study.\n(§2) The effects of carvacrol codrugs 1–10 and reference compounds on planktonic cells were evaluated by Minimum Inhibitory Concentration (MIC) and Minimum Bactericidal Concentration (MBC) determination using the broth microdilution method according to EUCAST guidelines. Bacterial suspensions, grown in Mueller–Hinton Broth (MHB) at logarithmic phase, were incubated on microtiter plates at a concentration of 5 x 10^5 CFU/mL, with several dilutions (0.07–40 mg/mL) for 24 h at 37°C. The MIC was defined as the lowest concentration of substances giving a complete inhibition of visible growth in comparison with a control well, and the MBC was determined as the lowest concentration at which no bacterial growth occurred on Mueller–Hinton Agar plates.\n(§3) Data were obtained from at least three independent experiments performed in duplicate. The susceptibility of the bacterial strains against ciprofloxacin was used as an internal standard during MIC determinations."}, "[2]": {"system": "S. aureus ATCC 29213", "test": "Broth microdilution MIC/MBC on planktonic cells", "format": "cell-based", "settings": "Staphylococcus aureus, ATCC29213", "experimental": "as §1, §2, §3"}, "[3]": {"system": "S. epidermidis ATCC 35984", "test": "Broth microdilution MIC/MBC on planktonic cells", "format": "cell-based", "settings": "Staphylococcus epidermidis, ATCC35984", "experimental": "as §1, §2, §3"}, "[4]": {"system": "E. coli ATCC 8739", "test": "Broth microdilution MIC/MBC on planktonic cells", "format": "cell-based", "settings": "Escherichia coli, ATCC8739", "experimental": "as §1, §2, §3"}, "[5]": {"test": "PAMPA-GI permeability", "format": "in vitro ADME", "settings": "for Papp at 16 h: 16 h of incubation (table title), 2% Tween 80, 10% MeOH, read-out: PAMPA-GI permeability P e", "experimental": "Parallel Artificial Membrane Permeability Assay (PAMPA) was used to measure the permeability coefficient (P e) of codrug 4 through the artificial membrane to predict oral absorption. The carvacrol codrug 4 permeability was determined using PAMPA-GI protocols already developed. Briefly, donor and acceptor plates were assembled to form a “sandwich” and incubated at room temperature for 18 h.\nP e can be calculated from the equation below: Pe={VD⋅VA/(VD+VA)⋅A⋅t⋅ln(1−[drug]acceptor/[drug]equilibrium)} (1) where P e is the effective permeability coefficient (cm × s^-1), V D is the volume of the donor compartment (0.15 cm^3) and V A is the volume of the acceptor compartment (0.30 cm^3), A is the effective filter area (0.28 cm^2), t is the incubation time for the assay (s), [drug] acceptor is the concentration of the compound in the acceptor compartment at assay completion, and [drug] equilibrium is the concentration of the compound at theoretical equilibrium."}, "[6]": {"system": "P. aeruginosa ATCC 9027", "test": "Antibiofilm assay on established biofilm (BIC/BEC)", "format": "cell-based", "experimental": "(§4) The efficacy on established biofilm was evaluated by determining Biofilm Inhibitory Concentration (BIC) and Biofilm Eradication Concentration (BEC) according to the method described by Johnson et al. with some modifications. Bacterial suspensions, grown in Tryptic soy broth supplemented with 0.5% (v/v) glucose at logarithmic phase, as well as C. albicans grown in RPMI 1640 plus 2% glucose, were incubated on flat-bottomed microtiter plates at a concentration of 5 x 10^5 CFU/mL. After 24 h of incubation at 37°C, the planktonic cells were gently removed and wells were washed with sterile phosphate-buffered saline solution (PBS) pH 7.3 and filled with carvacrol, carvacrol codrug 4, Ac-Cys(Allyl)-OH with dilutions ranging from the MIC values to a maximum concentration of 50 mg/mL. The OD600 was measured at time 0 and after incubation for 24 h at 37°C. The BIC values were determined as the lowest concentrations where no growth occurred in the supernatant fluid, confirmed by no increase in optical density compared with the initial reading. The BEC values were determined as the lowest concentrations at which no bacterial growth occurred on Tryptic soy agar for bacteria and on Sabouraud agar for C. albicans. Data were obtained from at least three independent experiments performed in duplicate."}, "[7]": {"system": "S. aureus ATCC 29213", "test": "Antibiofilm assay on established biofilm (BIC/BEC)", "format": "cell-based", "settings": "S. aureus ATCC 29213 established biofilm", "experimental": "as §4"}, "[8]": {"system": "S. epidermidis ATCC 35984", "test": "Antibiofilm assay on established biofilm (BIC/BEC)", "format": "cell-based", "experimental": "as §4"}, "[9]": {"system": "E. coli ATCC 8739", "test": "Antibiofilm assay on established biofilm (BIC/BEC)", "format": "cell-based", "experimental": "as §4"}, "[10]": {"system": "C. albicans ATCC 10231", "test": "Antibiofilm assay on established biofilm (BIC/BEC)", "format": "cell-based", "experimental": "as §4"}},
  "note": "Where two headings read alike, the source gives them in different places.",
  "data": [
    {"compound": "C=CCSC[C@H](NC(C)=O)C(=O)Oc1cc(C(C)C)ccc1C", "note": "[codrug 4, N-Ac-Cys(Allyl)-CAR]", "values": [
      {"measurement": "MIC", "setting": "[1]; P. aeruginosa ATCC 9027, 24 h at 37°C, read-out: MIC", "value": 5000, "unit": "µg/mL"},
      {"measurement": "MBC", "setting": "[1]; P. aeruginosa ATCC 9027, read-out: MBC", "value": 10000, "unit": "µg/mL"},
      {"measurement": "MIC", "setting": "[2]; S. aureus ATCC 29213, 24 h at 37°C, read-out: MIC", "value": 2500, "unit": "µg/mL"},
      {"measurement": "MBC", "setting": "[2]; S. aureus ATCC 29213, read-out: MBC", "value": 2500, "unit": "µg/mL"},
      {"measurement": "MIC", "setting": "[3]; S. epidermidis ATCC 35984, 24 h at 37°C, read-out: MIC", "value": 2500, "unit": "µg/mL"},
      {"measurement": "MBC", "setting": "[3]; S. epidermidis ATCC 35984, read-out: MBC", "value": 2500, "unit": "µg/mL"},
      {"measurement": "MIC", "setting": "[4]; E. coli ATCC 8739, 24 h at 37°C, read-out: MIC", "value": 2500, "unit": "µg/mL"},
      {"measurement": "MBC", "setting": "[4]; E. coli ATCC 8739, read-out: MBC", "value": 2500, "unit": "µg/mL"},
      {"measurement": "Papp at 18 h", "setting": "[5]; at each value of pH (5.0, 6.5, 7.4), after 18 h of incubation, read-out: PAMPA-GI permeability P e (bound)", "value": "> 1", "unit": "×10⁻⁶ cm/s"},
      {"measurement": "Papp at 16 h", "setting": "[5]; pH 5.0 in donor and acceptor", "value": 8.6, "unit": "×10⁻⁶ cm/s"},
      {"measurement": "Papp at 16 h", "setting": "[5]; pH 6.5 in donor and acceptor", "value": 17, "unit": "×10⁻⁶ cm/s"},
      {"measurement": "Papp at 16 h", "setting": "[5]; pH 7.4 in donor and acceptor", "value": 2.34, "unit": "×10⁻⁶ cm/s"},
      {"measurement": "BEC as multiple of MIC", "setting": "[6]; P. aeruginosa ATCC 9027", "value": 2, "unit": "MIC"},
      {"measurement": "BEC", "setting": "[6]; P. aeruginosa ATCC 9027 established biofilm", "value": 10, "unit": "mg/mL"},
      {"measurement": "BIC", "setting": "[6]; P. aeruginosa ATCC 9027 established biofilm, 24 h", "value": 5, "unit": "mg/mL"},
      {"measurement": "BEC", "setting": "[7]", "value": 10, "unit": "mg/mL"},
      {"measurement": "BIC", "setting": "[7]; 24 h", "value": 5, "unit": "mg/mL"},
      {"measurement": "BEC as multiple of MIC", "setting": "[8]; S. epidermidis ATCC 35984", "value": 8, "unit": "MIC"},
      {"measurement": "BIC as multiple of MIC", "setting": "[8]; S. epidermidis ATCC 35984", "value": 2, "unit": "MIC"},
      {"measurement": "BEC", "setting": "[8]; S. epidermidis ATCC 35984 established biofilm", "value": 20, "unit": "mg/mL"},
      {"measurement": "BIC", "setting": "[8]; S. epidermidis ATCC 35984 established biofilm, 24 h", "value": 5, "unit": "mg/mL"},
      {"measurement": "BEC as multiple of MIC", "setting": "[9]; E. coli ATCC 8739", "value": 16, "unit": "MIC"},
      {"measurement": "BIC as multiple of MIC", "setting": "[9]; E. coli ATCC 8739", "value": 8, "unit": "MIC"},
      {"measurement": "BEC", "setting": "[9]; E. coli ATCC 8739 established biofilm", "value": 40, "unit": "mg/mL"},
      {"measurement": "BIC", "setting": "[9]; E. coli ATCC 8739 established biofilm, 24 h", "value": 20, "unit": "mg/mL"},
      {"measurement": "BEC as multiple of MIC", "setting": "[10]; C. albicans ATCC 10231", "value": 8, "unit": "MIC"},
      {"measurement": "BIC as multiple of MIC", "setting": "[10]; C. albicans ATCC 10231", "value": 8, "unit": "MIC"},
      {"measurement": "BEC", "setting": "[10]; C. albicans ATCC 10231 established biofilm", "value": 10, "unit": "mg/mL"},
      {"measurement": "BIC", "setting": "[10]; C. albicans ATCC 10231 established biofilm, 24 h", "value": 10, "unit": "mg/mL"}
    ]}
  ]
}
